Here are results for 15 compounds from patent US12662489B2 (Sitryx Therapeutics Limited, priority 2023, dated 2026).

Each structure is given as a SMILES string. Bounds are passed on as bounds.

The target of assay [1] is T1, MTHFD2 recombinant human enzyme (Homo sapiens, UniProt P13995).
T1 sequence (P13995 36-350): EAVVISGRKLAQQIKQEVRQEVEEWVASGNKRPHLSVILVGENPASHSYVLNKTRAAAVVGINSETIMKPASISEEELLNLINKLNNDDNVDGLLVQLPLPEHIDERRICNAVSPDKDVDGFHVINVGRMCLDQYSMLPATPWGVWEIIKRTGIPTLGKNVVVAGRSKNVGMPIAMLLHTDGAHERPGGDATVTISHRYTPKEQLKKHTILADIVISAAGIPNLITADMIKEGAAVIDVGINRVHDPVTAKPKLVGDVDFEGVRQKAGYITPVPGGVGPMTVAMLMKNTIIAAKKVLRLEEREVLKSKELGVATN
The assay is described as follows: MTHFD2 inhibition assay (NAD(P)H-Glo luminescence). Particulars: for MTHFD1/MTHFD2 IC50 ratio: selectivity of MTHFD2 inhibition over MTHFD1, band.

Assay [2] addresses T2, MTHFD1 recombinant human enzyme (Homo sapiens, UniProt P11586).
T2 sequence (P11586 2-291 limits assumed): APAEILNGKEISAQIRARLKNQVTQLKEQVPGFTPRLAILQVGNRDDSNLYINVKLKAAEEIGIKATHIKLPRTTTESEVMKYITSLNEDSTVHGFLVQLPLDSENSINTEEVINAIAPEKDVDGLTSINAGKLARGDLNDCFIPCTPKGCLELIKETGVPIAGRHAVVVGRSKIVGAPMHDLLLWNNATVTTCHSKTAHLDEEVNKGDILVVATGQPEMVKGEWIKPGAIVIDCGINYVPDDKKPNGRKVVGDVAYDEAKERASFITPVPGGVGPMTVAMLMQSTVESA
The assay is described as follows: MTHFD1 inhibition assay (NAD(P)H-Glo luminescence). As to conditions: MTHFD1 IC50, recombinant human enzyme 200 nM, NADP, band.

Usually IC50 stands for the concentration needed to halve the response being measured. Regarding `COC[C@H]1CN(c2cc(C)c3c4c(c(=O)oc3c2C)CN(C(=O)c2cc(N3CCCC3)c(C(=O)NS(=O)(=O)N3CCCC3)cc2F)CC4)CCN1C` [Example 141, (R)-5-fluoro-4-(8-(3-(methoxymethyl)-4-methylpiperazin-1-yl)-7,10-dimethyl-5-oxo-1,3,4,5-tetrahydro-2H-chromeno[3,4-c]pyridine-3-carbonyl)-2-(pyrrolidin-1-yl)-N-(pyrrolidin-1-ylsulfonyl)benzamide], in assay [1], the IC50 was 10 to 100 nM and the “MTHFD1/MTHFD2 IC50 ratio” value is recorded as “F (<3)”. Also, the IC50 in assay [2] was 10 to 100 nM.
`COC[C@H]1CN(c2cc(C)c3c4c(c(=O)oc3c2C)CN(C(=O)c2cc(N3CCCC3)c(C(=O)NS(=O)(=O)C3(C)CC3)cc2F)CC4)CCN1C` [Example 142, (R)-5-fluoro-4-(8-(3-(methoxymethyl)-4-methylpiperazin-1-yl)-7,10-dimethyl-5-oxo-1,3,4,5-tetrahydro-2H-chromeno[3,4-c]pyridine-3-carbonyl)-N-((1-methylcyclopropyl)sulfonyl)-2-(pyrrolidin-1-yl)benzamide]: in assay [1], the IC50 was 10 to 100 nM and the “MTHFD1/MTHFD2 IC50 ratio” value is on record as “G (^ 3 to 9.0)”. Besides, the IC50 in assay [2] lay in the range of 10 to 100 nM.
Take `CCOC[C@H]1CN(c2ccc3c4c(c(=O)oc3c2C)CN(C(=O)c2ccc(C(=O)NS(=O)(=O)N3CCCC3)c(OC3CCC3)c2F)CC4)CCN1C` [Example 143, (R)-2-cyclobutoxy-4-(8-(3-(ethoxymethyl)-4-methylpiperazin-1-yl)-7-methyl-5-oxo-1,3,4,5-tetrahydro-2H-chromeno[3,4-c]pyridine-3-carbonyl)-3-fluoro-N-(pyrrolidin-1-ylsulfonyl)benzamide]: in assay [1], the IC50 was 10 to 100 nM and the “MTHFD1/MTHFD2 IC50 ratio” value is listed as “G (^ 3 to 9.0)”. For the same compound, the IC50 in assay [2] is 100 to 1000 nM.
The corresponding values for `CCOc1c(C(=O)NS(=O)(=O)N(C)C)ccc(C(=O)N2CCc3c(c(=O)oc4c(C)c(N5CCN(C)[C@@H](COC)C5)cc(C)c34)C2)c1F` [Example 146, (R)-N-(N,N-dimethylsulfamoyl)-2-ethoxy-3-fluoro-4-(8-(3-(methoxymethyl)-4-methylpiperazin-1-yl)-7,10-dimethyl-5-oxo-1,3,4,5-tetrahydro-2H-chromeno[3,4-c]pyridine-3-carbonyl)benzamide] are 1 to 10 nM, “F (<3)” and 10 to 100 nM.
The corresponding values for `COC[C@H]1CN(c2cc(C)c3c4c(c(=O)oc3c2C)CN(C(=O)c2ccc(C(=O)NS(=O)(=O)N(C)C)c(OC(C)C)c2F)CC4)CCN1C` [Example 148, (R)-N-(N,N-dimethylsulfamoyl)-3-fluoro-2-isopropoxy-4-(8-(3-(methoxymethyl)-4-methylpiperazin-1-yl)-7,10-dimethyl-5-oxo-1,3,4,5-tetrahydro-2H-chromeno[3,4-c]pyridine-3-carbonyl)benzamide] are 1 to 10 nM, “G (^ 3 to 9.0)” and 10 to 100 nM.
The corresponding values for `COC[C@H]1CN(c2cc(C)c3c4c(c(=O)oc3c2C)CN(C(=O)c2cc(N(C)C)c(C(=O)NS(=O)(=O)N3CCCC3)cc2C(F)(F)F)CC4)CCN1C` [Example 152, (R)-2-(dimethylamino)-4-(8-(3-(methoxymethyl)-4-methylpiperazin-1-yl)-7,10-dimethyl-5-oxo-1,3,4,5-tetrahydro-2H-chromeno[3,4-c]pyridine-3-carbonyl)-N-(pyrrolidin-1-ylsulfonyl)-5-(trifluoromethyl)benzamide] are 100 to 1000 nM, “H (>9.0 to 30)” and above 5000 nM.
`COC[C@H]1CN(c2cc(C)c3c4c(c(=O)oc3c2C)CN(C(=O)c2cc(OC3CCCC3)c(C(=O)NS(=O)(=O)N(C)C)c(C(F)(F)F)c2)CC4)CCN1C` [Example 153, (R)-2-(cyclopentyloxy)-N-(N,N-dimethylsulfamoyl)-4-(8-(3-(methoxymethyl)-4-methylpiperazin-1-yl)-7,10-dimethyl-5-oxo-1,3,4,5-tetrahydro-2H-chromeno[3,4-c]pyridine-3-carbonyl)-6-(trifluoromethyl)benzamide]: the values for the IC50 in assay [1] and in assay [2] were 10 to 100 nM and 1000 to 5000 nM, respectively. In addition, the “MTHFD1/MTHFD2 IC50 ratio” value in assay [1] is recorded as “H (>9.0 to 30)”.
`COC[C@H]1CN(c2cc(C)c3c4c(c(=O)oc3c2C)CN(C(=O)c2cc(OC)c(C(=O)NS(=O)(=O)N3CCCC3)c(C(F)(F)F)c2)CC4)CCN1C` [Example 154, (R)-2-methoxy-4-(8-(3-(methoxymethyl)-4-methylpiperazin-1-yl)-7,10-dimethyl-5-oxo-1,3,4,5-tetrahydro-2H-chromeno[3,4-c]pyridine-3-carbonyl)-N-(pyrrolidin-1-ylsulfonyl)-6-(trifluoromethyl)benzamide]: in assay [1], the half-inhibitory concentration (IC50) was 100 to 1000 nM and the “MTHFD1/MTHFD2 IC50 ratio” value was “H (>9.0 to 30)”. The IC50 in assay [2] is 1000 to 5000 nM.
The corresponding values for `COC[C@H]1CN(c2cc(C)c3c4c(c(=O)oc3c2C)CN(C(=O)c2ccc(C(=O)NS(=O)(=O)N3C5CCC3COC5)c(OC)c2F)CC4)CCN1C` [Example 158, N-((3-oxa-8-azabicyclo[3.2.1]octan-8-yl)sulfonyl)-3-fluoro-2-methoxy-4-(8-((R)-3-(methoxymethyl)-4-methylpiperazin-1-yl)-7,10-dimethyl-5-oxo-1,3,4,5-tetrahydro-2H-chromeno[3,4-c]pyridine-3-carbonyl)benzamide] are 10 to 100 nM, “H (>9.0 to 30)” and 100 to 1000 nM.
The corresponding values for `COC[C@H]1CN(c2cc(C)c3c4c(c(=O)oc3c2C)CN(C(=O)c2cc(N(C)C)c(C(=O)NS(=O)(=O)C3(C)CC3)cc2C(F)(F)F)CC4)CCN1C` [Example 159, (R)-2-(dimethylamino)-4-(8-(3-(methoxymethyl)-4-methylpiperazin-1-yl)-7,10-dimethyl-5-oxo-1,3,4,5-tetrahydro-2H-chromeno[3,4-c]pyridine-3-carbonyl)-N-((1-methylcyclopropyl)sulfonyl)-5-(trifluoromethyl)benzamide] are 100 to 1000 nM, “H (>9.0 to 30)” and above 5000 nM.
Turning to `CCOc1cc(C(=O)N2CCc3c(c(=O)oc4c(C)c(N5CCN(C)[C@@H](COC)C5)cc(C)c34)C2)cc(C(F)(F)F)c1C(=O)NS(=O)(=O)N1CCCC1` [Example 160, (R)-2-ethoxy-4-(8-(3-(methoxymethyl)-4-methylpiperazin-1-yl)-7,10-dimethyl-5-oxo-1,3,4,5-tetrahydro-2H-chromeno[3,4-c]pyridine-3-carbonyl)-N-(pyrrolidin-1-ylsulfonyl)-6-(trifluoromethyl)benzamide], in assay [1], the IC50 fell in the range of 100 to 1000 nM and the “MTHFD1/MTHFD2 IC50 ratio” value is on record as “H (>9.0 to 30)”. Moreover, in assay [2], the IC50 lay within 1000 to 5000 nM.
As to `COC[C@H]1CN(c2cc(C)c3c4c(c(=O)oc3c2C)CN(C(=O)c2cc(OC(C)C)c(C(=O)NS(=O)(=O)N3CCCC3)c(C(F)(F)F)c2)CC4)CCN1C` [Example 161, (R)-2-isopropoxy-4-(8-(3-(methoxymethyl)-4-methylpiperazin-1-yl)-7,10-dimethyl-5-oxo-1,3,4,5-tetrahydro-2H-chromeno[3,4-c]pyridine-3-carbonyl)-N-(pyrrolidin-1-ylsulfonyl)-6-(trifluoromethyl)benzamide], in assay [1], the IC50 lay in the range of 10 to 100 nM and the “MTHFD1/MTHFD2 IC50 ratio” value is given as “J (>30)”. Besides, the IC50 in assay [2] lay within 1000 to 5000 nM.
On the same counts, the results for `COC[C@@H]1CN(c2ccc3c4c(c(=O)oc3c2C)CN(C(=O)c2ccc(C(=O)NS(=O)(=O)N3CCCC3)c(OC3CCC3)c2F)CC4)CCN1C` [Example 162, (S)-2-cyclobutoxy-3-fluoro-4-(8-(3-(methoxymethyl)-4-methylpiperazin-1-yl)-7-methyl-5-oxo-1,3,4,5-tetrahydro-2H-chromeno[3,4-c]pyridine-3-carbonyl)-N-(pyrrolidin-1-ylsulfonyl)benzamide] are 100 to 1000 nM, “F (<3)” and 100 to 1000 nM.
The corresponding values for `COC[C@H]1CN(c2cc(C)c3c4c(c(=O)oc3c2C)CN(C(=O)c2ccc(OC3CCC3)c(C(=O)NS(=O)(=O)N3CCCC3)c2)CC4)CCN1C` [Example 163, (R)-2-cyclobutoxy-5-(8-(3-(methoxymethyl)-4-methylpiperazin-1-yl)-7,10-dimethyl-5-oxo-1,3,4,5-tetrahydro-2H-chromeno[3,4-c]pyridine-3-carbonyl)-N-(pyrrolidin-1-ylsulfonyl)benzamide] are 100 to 1000 nM, “H (>9.0 to 30)” and above 5000 nM.
Turning to `COC[C@H]1CN(c2cc(C)c3c4c(c(=O)oc3c2C)CN(C(=O)c2cc(OC3CCC3)cc(C(=O)NS(=O)(=O)N3CCCC3)c2)CC4)CCN1C` [Example 164, (R)-3-cyclobutoxy-5-(8-(3-(methoxymethyl)-4-methylpiperazin-1-yl)-7,10-dimethyl-5-oxo-1,3,4,5-tetrahydro-2H-chromeno[3,4-c]pyridine-3-carbonyl)-N-(pyrrolidin-1-ylsulfonyl)benzamide], in assay [1], the IC50 fell in the range of 100 to 1000 nM and the “MTHFD1/MTHFD2 IC50 ratio” value is listed as “H (>9.0 to 30)”. The half-inhibitory concentration (IC50) in assay [2] is above 5000 nM.
